Measurements: ChEMBL document CHEMBL4138123, “Design, synthesis and biological evaluation of novel pyrazolochalcones as potential modulators of PI3K/Akt/mTOR pathway and inducers of apoptosis in breast cancer cells” (Eur J Med Chem, 2017)

Experiments:
OVCAR-3 = test: Cytotoxicity against human OVCAR3 cells assessed as cell growth at 100 uM after 48 hrs by sulforhodamine B assay relative to control; format: functional; settings: OVCAR-3, 48 h, read-out: Activity
UO-31 = test: Cytotoxicity against human UO31 cells assessed as cell growth at 0.1 uM after 48 hrs by sulforhodamine B assay relative to control; format: functional; settings: UO-31, 48 h, read-out: Activity
HCT-15 [1] = test: Cytotoxicity against human HCT15 cells assessed as cell growth at 0.01 uM after 48 hrs by sulforhodamine B assay relative to control; format: functional; settings: HCT-15, 48 h, read-out: Activity
SNB-19 = test: Cytotoxicity against human SNB19 cells assessed as cell growth at 0.1 uM after 48 hrs by sulforhodamine B assay relative to control; format: functional; settings: SNB-19, 48 h, read-out: Activity
NCI-H226 [2] = test: Cytotoxicity against human NCI-H226 cells assessed as cell growth at 10 uM after 48 hrs by sulforhodamine B assay relative to control; format: functional; settings: NCI-H226, 48 h, read-out: Activity
CCRF-CEM = test: Cytotoxicity against human CCRF-CEM cells assessed as cell growth at 0.01 uM after 48 hrs by sulforhodamine B assay relative to control; format: functional; settings: read-out: Activity
OVCAR-4 [3] = test: Cytotoxicity against human OVCAR4 cells assessed as cell growth at 10 uM after 48 hrs by sulforhodamine B assay relative to control; format: functional; settings: OVCAR-4, 48 h, read-out: Activity
MCF7 [4] = test: Cytotoxicity against human MCF7 cells assessed as growth inhibition after 48 hrs by sulforhodamine B assay; format: functional; settings: MCF7, 48 h
NCI-H226 [5] = test: Cytotoxicity against human NCI-H226 cells assessed as cell growth at 1 uM after 48 hrs by sulforhodamine B assay relative to control; format: functional; settings: NCI-H226, 48 h, read-out: Activity
IGROV-1 = test: Cytotoxicity against human IGROV1 cells assessed as cell growth at 1 uM after 48 hrs by sulforhodamine B assay relative to control; format: functional; settings: IGROV-1, 48 h, read-out: Activity
SF-268 = test: Cytotoxicity against human SF268 cells assessed as cell growth at 0.01 uM after 48 hrs by sulforhodamine B assay relative to control; format: functional; settings: SF-268, 48 h, read-out: Activity
SK-MEL-28 = test: Cytotoxicity against human SK-MEL-28 cells assessed as cell growth at 10 uM after 48 hrs by sulforhodamine B assay relative to control; format: functional; settings: SK-MEL-28, 48 h, read-out: Activity
OVCAR-8 [6] = test: Cytotoxicity against human OVCAR8 cells assessed as cell growth at 0.1 uM after 48 hrs by sulforhodamine B assay relative to control; format: functional; settings: OVCAR-8, 48 h, read-out: Activity
OVCAR-8 [7] = test: Cytotoxicity against human OVCAR8 cells assessed as cell growth at 0.01 uM after 48 hrs by sulforhodamine B assay relative to control; format: functional; settings: OVCAR-8, 48 h, read-out: Activity
K562 = test: Cytotoxicity against human K562 cells assessed as cell growth at 0.01 uM after 48 hrs by sulforhodamine B assay relative to control; format: functional; settings: K562, 48 h, read-out: Activity
TK-10 [8] = test: Cytotoxicity against human TK10 cells assessed as cell growth at 0.1 uM after 48 hrs by sulforhodamine B assay relative to control; format: functional; settings: TK-10, 48 h, read-out: Activity
MOLT-4 = test: Cytotoxicity against human MOLT4 cells assessed as cell growth at 0.1 uM after 48 hrs by sulforhodamine B assay relative to control; format: functional; settings: MOLT-4, 48 h, read-out: Activity
NCI/ADR-RES = test: Cytotoxicity against human NCI/ADR-RES cells assessed as cell growth at 100 uM after 48 hrs by sulforhodamine B assay relative to control; format: functional; settings: read-out: Activity
A549 = test: Cytotoxicity against human A549/ATCC cells assessed as growth inhibition after 48 hrs by sulforhodamine B assay; format: functional; settings: A549, 48 h
HT-29 = test: Cytotoxicity against human HT-29 cells assessed as growth inhibition after 48 hrs by sulforhodamine B assay; format: functional; settings: HT-29, 48 h
MDA-MB-231 = test: Cytotoxicity against human MDA-MB-231 cells assessed as growth inhibition after 48 hrs by MTT assay; format: functional, cell-based; settings: MDA-MB-231, 48 h
MCF7 [9] = test: Cytotoxicity against human MCF7 cells assessed as cell growth at 0.01 uM after 48 hrs by sulforhodamine B assay relative to control; format: functional; settings: MCF7, 48 h, read-out: Activity
MDA-MB-468 = test: Cytotoxicity against human MDA-MB-468 cells assessed as cell growth at 10 uM after 48 hrs by sulforhodamine B assay relative to control; format: functional; settings: MDA-MB-468, 48 h, read-out: Activity
UACC-62 = test: Cytotoxicity against human UACC62 cells assessed as growth inhibition after 48 hrs by sulforhodamine B assay; format: functional; settings: UACC-62, 48 h
SF-539 = test: Cytotoxicity against human SF539 cells assessed as growth inhibition after 48 hrs by sulforhodamine B assay; format: functional; settings: SF-539, 48 h
UACC-257 = test: Cytotoxicity against human UACC257 cells assessed as cell growth at 10 uM after 48 hrs by sulforhodamine B assay relative to control; format: functional; settings: UACC-257, 48 h, read-out: Activity
TK-10 [10] = test: Cytotoxicity against human TK10 cells assessed as cell growth at 100 uM after 48 hrs by sulforhodamine B assay relative to control; format: functional; settings: TK-10, 48 h, read-out: Activity
OVCAR-8 [11] = test: Cytotoxicity against human OVCAR8 cells assessed as cell growth at 1 uM after 48 hrs by sulforhodamine B assay relative to control; format: functional; settings: OVCAR-8, 48 h, read-out: Activity
OVCAR-4 [12] = test: Cytotoxicity against human OVCAR4 cells assessed as cell growth at 1 uM after 48 hrs by sulforhodamine B assay relative to control; format: functional; settings: OVCAR-4, 48 h, read-out: Activity
HCT-15 [13] = test: Cytotoxicity against human HCT15 cells assessed as growth inhibition after 48 hrs by sulforhodamine B assay; format: functional; settings: HCT-15, 48 h
U-251 = test: Cytotoxicity against human U251 cells assessed as cell growth at 0.01 uM after 48 hrs by sulforhodamine B assay relative to control; format: functional; settings: U-251, 48 h, read-out: Activity
SK-MEL-5 = test: Cytotoxicity against human SK-MEL-5 cells assessed as cell growth at 1 uM after 48 hrs by sulforhodamine B assay relative to control; format: functional; settings: SK-MEL-5, 48 h, read-out: Activity
HCC 2998 = test: Cytotoxicity against human HCC2998 cells assessed as growth inhibition after 48 hrs by sulforhodamine B assay; format: functional; settings: HCC 2998, 48 h
HL-60(TB) = test: Cytotoxicity against human HL-60(TB) cells assessed as growth inhibition after 48 hrs by sulforhodamine B assay; format: functional; settings: HL-60, 48 h
NCI-H522 = test: Cytotoxicity against human NCI-H522 cells assessed as cell growth at 100 uM after 48 hrs by sulforhodamine B assay relative to control; format: functional; settings: NCI-H522, 48 h, read-out: Activity

`COc1cc(-c2cc(/C=C/C(=O)c3ccc(N)cc3)[nH]n2)cc(OC)c1OC` showed a growth at 100 µM (OVCAR-3) of -93%, a growth at 0.1 µM (UO-31) of 91% and a growth at 0.01 µM (HCT-15 [1]) of 92%. The growth at 0.1 µM (SNB-19) was 94%, the growth at 10 µM (NCI-H226 [2]) was -73% and the growth at 0.01 µM (CCRF-CEM) was 96%. It also gave a growth at 10 µM (OVCAR-4 [3]) of -22%, a GI50 (MCF7 [4]) of 1.5 µM and an LC50 (MCF7 [4]) of 60.5 µM. It also gave a TGI (MCF7 [4]) of 5.42 µM, a growth at 1 µM (NCI-H226 [5]) of 88% and a growth at 1 µM (IGROV-1) of 100%. The growth at 0.01 µM (SF-268) was 99%, the growth at 10 µM (SK-MEL-28) was -57% and the growth at 0.1 µM (OVCAR-8 [6]) was 98%. The growth at 0.01 µM (OVCAR-8 [7]) was 100%, the growth at 0.01 µM (K562) was 100% and the growth at 0.1 µM (TK-10 [8]) was 100%. It also gave a growth at 0.1 µM (MOLT-4) of 102%, a growth at 100 µM (NCI/ADR-RES) of -3% and a GI50 (A549) of 2.08 µM. For the same molecule, the LC50 (concentration giving 50% net cell kill) (A549) was 86.5 µM, the TGI (A549) was 7.02 µM and the GI50 (HT-29) was 1.85 µM. The LC50 (HT-29) was greater than 100 µM, the TGI (HT-29) was 4.82 µM and the IC50 (MDA-MB-231) was 2 µM. The growth at 0.01 µM (MCF7 [9]) was 89%, the growth at 10 µM (MDA-MB-468) was -58% and the GI50 (UACC-62) was 1.7 µM. It also gave an LC50 (UACC-62) of 7.51 µM, a TGI (UACC-62) of 3.58 µM and a GI50 (SF-539) of 1.3 µM. For the same molecule, the LC50 (concentration killing 50% of cells) (SF-539) was 5.42 µM, the TGI (SF-539) was 2.66 µM and the growth at 10 µM (UACC-257) was -59%. For the same molecule, the growth at 100 µM (TK-10 [10]) was -81%, the growth at 1 µM (OVCAR-8 [11]) was 81% and the growth at 1 µM (OVCAR-4 [12]) was 62%. For the same molecule, the GI50 (HCT-15 [13]) was 1.37 µM, the LC50 (HCT-15 [13]) was greater than 100 µM and the TGI (HCT-15 [13]) was 6.76 µM. The growth at 0.01 µM (U-251) was 98%, the growth at 1 µM (SK-MEL-5) was 90% and the GI50 (HCC 2998) was 2.01 µM. It also gave an LC50 (HCC 2998) of 6.53 µM, a TGI (HCC 2998) of 3.63 µM and a GI50 (HL-60(TB)) of 1.74 µM. It also gave an LC50 (HL-60(TB)) greater than 100 µM, a TGI (HL-60(TB)) of 10.8 µM and a growth at 100 µM (NCI-H522) of -83%.
